Laboratory results from paper PMC12316777.
Read-outs that look alike come from different tables or passages of the source.

What was measured:
SARS-CoV-2 nsp14 [1] = molecular target: T1, SARS-CoV-2 nsp14 (Severe acute respiratory syndrome coronavirus 2, UniProt P0DTD1); type: biochemical; details: for IC50: read-out: IC50 (± SD) MTase; for Km: increasing molar equivalents of Au(I)
[2] = molecular target: SARS-CoV-2 nsp14/nsp10 complex (Severe acute respiratory syndrome coronavirus 2, UniProt P0DTD1); test: FRET-based exoribonuclease (ExoN) activity assay; type: biochemical; details: for IC50: nsp14/nsp10 pre-incubated with compound 1 h, n = 3, read-out: IC50 (± SD) ExoN
[3] = system: SARS-CoV-2 Omicron BA.5 in VeroE6-TMPRSS2 cells; test: Plaque reduction assay; type: cell-based; details: VeroE6-TMPRSS2, n = 2, read-out: EC50, inhibition of SARS-CoV-2 virus replication
SARS-CoV-2 nsp10 = SARS-CoV-2 nsp10 (Severe acute respiratory syndrome coronavirus 2, UniProt P0DTD1); test: Metal displacement analysis (equilibrium dialysis, ICP-MS), nsp10; type: binding
Source text: (§1) Since nsp14 and nsp10 have 3 and 2 zinc-finger motifs respectively, playing structural roles and as well as being important to the functions of nsp14/nsp10 complex. The soft nature of Au(I) makes it very likely to bind to the thiolates/nitrogen atoms in these cysteine/histidine-rich zinc-binding sites. To verify this, we then investigated the binding of Au(I) to the native nsp14 and nsp10 using equilibrium dialysis and determined the metal contents by inductively coupled plasma mass spectrometry (ICP-MS). […] Similarly, ca. 1.84 ± 0.66 mol equiv of Au(I) bound to per nsp10, accompanied by ca. 1.89 ± 0.28 mol equiv of Zn(II) release. […] In addition, since the ExoN activity of nsp14 is largely stimulated by nsp10, and nsp10 − nsp14 intermolecular interaction involves residues around the zinc finger of nsp10 [33, 34], we also examined the influence of Au(I) binding to nsp10 on the ExoN activity of nsp14.
(§2) Au(I) binding and Zn(II) release on nsp10 and nsp14 were determined by Inductively Coupled Plasma Mass Spectrometry (ICP-MS) on Agilent 7700 × ICP-MS (Agilent Technologies). […] Dialysis tubes loaded with 100 μL Zn-bound proteins (5 μM for nsp14 and nsp13 and 20 μM for nsp10) or protein buffer were placed into 50 mL dialysis buffer in the presence of different concentrations of Au(I) compounds (as Au(PEt3)Cl) with mild shaking at 18 °C overnight. The protein concentration was measured by bicinchoninic acid (BCA) assay, and the metal concentration of solution both inside and outside the dialysis tubes was determined by ICP-MS.

SARS-CoV-2 nsp14 [4] = molecular target: T1, SARS-CoV-2 nsp14; test: Size-exclusion chromatography of nsp14; details: 0−10 molar equivalents; monomer peak 9.6 mL decreases, peak at ca. 9.1 mL appears
SARS-CoV-2 nsp14 [5] = molecular target: T1, SARS-CoV-2 nsp14; test: Circular dichroism spectroscopy of nsp14 (BeStSel); details: CD deconvoluted by BeStSel; around 65% in untreated nsp14
SARS-CoV-2 nsp14 [6] = molecular target: T1, SARS-CoV-2 nsp14; test: EMSA of nsp14 binding to dsRNA ExoN substrate; details: 4 µM nsp14, 0–40 µM drug, 200 nM dsRNA
Source text: Next, we explored the inhibition mechanism of nsp14/nsp10 by Au(I). We first investigated the inhibition mode of Au(I) on the dual activities of nsp14, for which we selected Au(PEt3)Cl as a showcase. To explore the influence of Au(I) on the kinetics of the nsp14/nsp10 ExoN activity, a 20-nucleotide 5′-dU overhang conjugated to a Cy3/BHQ2 pair was used as an RNA duplex substrate. Then, the reciprocals of the reaction velocity and the concentration of the two substrates were used to plot the Lineweaver–Burk plot. And the Michaelis–Menten constant (Km) and the maximum reaction rate (Vmax) were calculated by nonlinear fitting to the Michaelis − Menten equation.
RNA-binding capability of nsp14 was determined by EMSA. […] For the bismuth(III) and Au(I) addition assays, nsp14 (4 µM) was pre-incubated with various concentrations of drugs (0, 1, 2, 4, 8, 20, 40 µM) in HEPES buffer for 2 h on ice before the RNA-binding assays before incubating with 200 nM of dsRNA at room temperature for 15 min. A 20 µL of the reaction mixture was then loaded onto 6% native-polyacrylamide gels and electrophoresed in 1xTBE buffer. Electrophoresis was carried out at 100 V for 50 min. Gels were subsequently stained by GelRed (Sigma Aldrich) for 5 min at room temperature and visualized through iBright™ CL750 Imaging System (Thermo Fisher Scientific).
ExoN substrates. Relative band intensities were quantified by ImageJ. […]

SARS-CoV-2 nsp14 [7] = molecular target: T1, SARS-CoV-2 nsp14; test: Metal displacement analysis (equilibrium dialysis, ICP-MS), nsp14; type: binding
Source text: as §1, §2

nsp14 (ExoN/N7-MTase) = nsp14 (ExoN/N7-MTase) (SARS-CoV-2 isolate Wuhan-Hu-1, UniProt P0DTD1 5926-6452); test: EMSA; no Au(I); 200 nM dsRNA, nsp14 0-8 uM; details: protein: recombinant; tags: N-terminal 6xHis, removed with thrombin; label: 5'-Cy3 on top strand; labels in EMSA not restated
[8] = nsp14 pre-incubated with compound 1 h, n = 3

Which results are given for O=S(=O)([O-])[S-].O=S(=O)([O-])[S-].[Au+].[Na+].[Na+].[Na+] [Na3Au(S2O3)2, gold(I) sodium thiosulfate]?
IC50 (SARS-CoV-2 nsp14 [1]): 1770 ± 10 nM; IC50 [2]: 1710 ± 90 nM

Which EC50 [3] does the source give for CC(=O)OC[C@H]1O[C@@H]([S-])[C@H](OC(C)=O)[C@@H](OC(C)=O)[C@@H]1OC(C)=O.CCP(CC)CC.[Au+] [auranofin] here?
The EC50 was 730 ± 210 nM.

Which results are given for “(1-(adamantan-1-yl)thiourea)-(triethylphosphine)-gold(I) [Au-amantadine]”?
IC50 (SARS-CoV-2 nsp14 [1]; [8]): 8160 ± 180 nM; IC50 [2]: 1570 ± 120 nM

How did the “ExoN enzyme activity remaining” value ([2]; 50 mol equiv of compound) turn out when [Cl][Au][PH]12CN3CN(CN(C3)C1)C2 [Urotropine-Au-Cl] was run?
Its value is 0.68%.

For CCP(CC)CC.[Au+].[Cl-] [Au(PEt3)Cl, chloro(triethylphosphine)gold(I)], which “Au(I) bound per nsp10” value (SARS-CoV-2 nsp10; equilibrium dialysis, ICP-MS) is on record?
The value was “ca. 1.84 ± 0.66 mol equiv”.

And the “Zn(II) release from nsp10” value (SARS-CoV-2 nsp10; equilibrium dialysis, ICP-MS)?
The value was “ca. 1.89 ± 0.28 mol equiv”.

What about the “maximal binding capacity (Bmax), nsp10” value (SARS-CoV-2 nsp10; fit to specific binding plot) of the same molecule?
Its value is 1.75 ± 0.60.

What about the Kd (SARS-CoV-2 nsp10; fit to specific binding plot, read-out: dissociation constant (Kd), nsp10) of the same molecule?
The Kd was 6550 ± 770 nM.

What about the “effect on quaternary structure of nsp14” value (SARS-CoV-2 nsp14 [4]) of the same molecule?
Its value is “partial oligomerization”.

And the “Vmax, G(5′)ppp(5′)A RNA-dependent MTase kinetics” value (SARS-CoV-2 nsp14 [1])?
Its value is 0.12 µM/min.

What about the “Vmax, SAM-dependent MTase kinetics” value (SARS-CoV-2 nsp14 [1]) of the same molecule?
Its value is 0.09 µM/min.

And the “mode of inhibition of MTase activity” value (SARS-CoV-2 nsp14 [1]; SAM- and GpppA-RNA-dependent kinetics)?
Its value is “noncompetitive”.

And the Km (SARS-CoV-2 nsp14 [1]; read-out: Km, G(5′)ppp(5′)A RNA-dependent MTase kinetics)?
Its Km is 1.18 ± 0.02 µM.

What about the Km (SARS-CoV-2 nsp14 [1]; read-out: Km, SAM-dependent MTase kinetics) of the same molecule?
The Km was 1.62 ± 0.02 µM.

What about the IC50 (SARS-CoV-2 nsp14 [1]; [8]) of the same molecule?
Its IC50 is 4500 ± 980 nM.

What about the “mode of inhibition of ExoN activity” value ([2]; Lineweaver–Burk / Michaelis–Menten analysis) of the same molecule?
The value was “noncompetitive”.

And the “Vmax, ExoN kinetics” value ([2]; decreased from 2.7 with different molar equivalents of Au(I))?
Its value is 0.5 nM/min.

And the IC50 [2]?
Its IC50 is 380 ± 40 nM.

And the “helix content in nsp14 after treatment” value (SARS-CoV-2 nsp14 [5])?
Its value is 36%.

And the “effect on formation of the nsp14−RNA complex” value (SARS-CoV-2 nsp14 [6])?
Its value is “negligible effects”.

What about the “Au(I) bound per nsp14” value (SARS-CoV-2 nsp14 [7]; equilibrium dialysis, ICP-MS) of the same molecule?
The value was “ca. 2.95 ± 0.23 mol equiv”.

And the “Zn(II) release from nsp14” value (SARS-CoV-2 nsp14 [7]; equilibrium dialysis, ICP-MS)?
Its value is “ca. 2.56 ± 0.21 mol equiv”.

What about the “maximal binding capacity (Bmax), nsp14” value (SARS-CoV-2 nsp14 [7]; fit to specific binding plot) of the same molecule?
The value was 3.10 ± 0.32.

And the Kd (SARS-CoV-2 nsp14 [7]; fit to specific binding plot, read-out: dissociation constant (Kd), nsp14)?
Its Kd is 6540 ± 330 nM.

What does the source list for [Cl][Au] [AuCl, gold(I) chloride]?
IC50 (SARS-CoV-2 nsp14 [1]; [8]): 910 ± 10 nM; IC50 [2]: 5780 ± 310 nM

B1: ExoN substrate dsRNA (dsRNA)
RNA 1: GGUAGUAAUCCGCUC
RNA 2: UUUUUUUUUUUUUUUUUUUUGAGCGGAUUACUACUACC
Does B1 bind (nsp14 (ExoN/N7-MTase))?
Result: binds
